According to patent publication US8895695B2, “Template-fixed beta-hairpin peptidomimetics with CXCR4 antagonizing activity” (priority 2003, dated 2014):
Like-named read-outs stand apart in the source and are kept apart here. Numbered stars: 1 amine (or outer) side, 2 acyl side, 3 side chain; on linkers, the order of the positions; unused ones are H or OH. Bridge positions count the residues as written; N and C are the ends. Square brackets hold non-standard residues; d marks the D form. Peptide text beside a SMILES is read from it. X3 = COCCOCCOCC(=O)N[C@H]1C[C@@H](C(=O)[*:2])N([*:1])C1; Phe(4-F) = N[C@@H](Cc1ccc(F)cc1)C(=O)O; 2Nal = N[C@@H](Cc1ccc2ccccc2c1)C(=O)O; Cit = NC(=O)NCCC[C@H](N)C(=O)O; Dab = NCC[C@H](N)C(=O)O

Experiments:
[1] = tested on: human red blood cells (hRBC); test: Hemolysis; format: cell-based
Method in brief: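 Percent lysis taken as OD540 of peptide-treated sample over OD540 of the water/0.1% Triton X-100 full-lysis control, with PBS giving 0%. Peptides at 100 μM exposed to PBS-washed human RBCs (20% v/v) for 1 hour at 37° C. before centrifugation and 20-fold dilution of supernatant.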

in vitro = conditions: human
CXCR4 = CXCR4 (Homo sapiens, UniProt P61073); test: Ca2+-assay method 2 (Flexstation, SDF-1 induced calcium mobilization); format: cell-based; design: expressed in transfected cells; host or cells: mouse pre-B cell line 300-19; conditions: method 2 (Ex. 54-160), mouse pre-B cell line 300-19 with human CXCR4, 10 nM SDF-1
CXCR4, sequence (P61073 whole entry): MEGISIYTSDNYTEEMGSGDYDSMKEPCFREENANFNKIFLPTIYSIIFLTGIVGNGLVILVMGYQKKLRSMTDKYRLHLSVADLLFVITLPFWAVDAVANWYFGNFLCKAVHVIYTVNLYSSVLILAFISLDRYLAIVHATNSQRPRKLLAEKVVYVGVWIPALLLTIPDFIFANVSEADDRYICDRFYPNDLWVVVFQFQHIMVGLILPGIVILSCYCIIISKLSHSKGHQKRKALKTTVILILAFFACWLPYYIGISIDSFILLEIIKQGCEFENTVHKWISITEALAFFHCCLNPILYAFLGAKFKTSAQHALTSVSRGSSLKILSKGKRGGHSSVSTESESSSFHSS

[2] = read-out: IC50 (nM) Ca^2+ assay
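For GI50 in this document: MTT reduction read as absorbance at 595 nm, blank-corrected and expressed as percent growth relative to the time-zero cell reading, triplicate wells per concentration.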

Row | Compound | Hemolysis at 100 μM [1] | GI50 at 48 h (in vitro) | IC50 (CXCR4; [2]) | Hemolysis at 100 μM ([1]; percent hemolysis, 100 μM peptide, 20% v/v hRBC, 1 hour at 37° C.) | IC50 (CXCR4; IC50 (nM) Ca^2+ assay)
1 | CC(C)[C@@H]1NC(=O)[C@H](CCCNC(=N)N)NC(=O)[C@H](Cc2ccc(O)cc2)NC(=O)[C@@H]2CCCN2C(=O)[C@H]2CCCN2C(=O)[C@H](CCCCN)NC(=O)[C@H](CCC(N)=O)NC(=O)[C@H](Cc2ccc(O)cc2)NC(=O)[C@@H]2CSSC[C@H](NC1=O)C(=O)N[C@@H](CCCNC(=N)N)C(=O)NCC(=O)N1CCC[C@@H]1C(=O)N[C@@H](CCCNC(=N)N)C(=O)N[C@@H](CCCNC(=N)N)C(=O)N[C@@H](Cc1ccc3ccccc3c1)C(=O)N2 [Ex. 98] (cyclo(YRVCRG[dP]RR[2Nal]CYQK[dP]P); disulfide 4-11) | 1% | 41 µM | 3.9 nM | – | –
2 | N=C(N)NCCC[C@@H]1NC(=O)[C@@H]2CSSC[C@H](NC(=O)[C@H](Cc3ccc4ccccc4c3)NC(=O)[C@H](CCCNC(=N)N)NC(=O)[C@H](CCCNC(=N)N)NC(=O)[C@H]3CCCN3C(=O)CNC1=O)C(=O)N[C@@H](Cc1ccc(O)cc1)C(=O)N[C@@H](CCC(N)=O)C(=O)N[C@@H](CCCCN)C(=O)N1CCC[C@@H]1C(=O)N1CCC[C@H]1C(=O)N[C@@H](Cc1ccc(O)cc1)C(=O)N[C@@H](CCCNC(=N)N)C(=O)N[C@@H](Cc1ccc(F)cc1)C(=O)N2 [Ex. 99] (cyclo(YR[Phe(4-F)]CRG[dP]RR[2Nal]CYQK[dP]P); disulfide 4-11) | 1.1% | 40 µM | 4.2 nM | – | –
3 | CSCC[C@@H]1NC(=O)[C@H](CCCNC(=N)N)NC(=O)[C@H](Cc2ccc(O)cc2)NC(=O)[C@@H]2CCCN2C(=O)[C@H]2CCCN2C(=O)[C@H](CCCCN)NC(=O)[C@H](CCC(N)=O)NC(=O)[C@H](Cc2ccc(O)cc2)NC(=O)[C@@H]2CSSC[C@H](NC1=O)C(=O)N[C@@H](CCCNC(=N)N)C(=O)NCC(=O)N1CCC[C@@H]1C(=O)N[C@@H](CCCNC(=N)N)C(=O)N[C@@H](CCCNC(=N)N)C(=O)N[C@@H](Cc1ccc3ccccc3c1)C(=O)N2 [Ex. 100] (cyclo(YRMCRG[dP]RR[2Nal]CYQK[dP]P); disulfide 4-11) | 0.8% | 43 µM | 7 nM | – | –
4 | N=C(N)NCCC[C@@H]1NC(=O)[C@@H]2CSSC[C@H](NC(=O)[C@H](Cc3ccc4ccccc4c3)NC(=O)[C@H](CCCNC(=N)N)NC(=O)[C@H](CCCNC(=N)N)NC(=O)[C@H]3CCCN3C(=O)CNC1=O)C(=O)N[C@@H](Cc1ccc(O)cc1)C(=O)N[C@@H](CCCNC(N)=O)C(=O)N[C@@H](CCC(=O)O)C(=O)N1CCC[C@@H]1C(=O)N1CCC[C@H]1C(=O)N[C@@H](Cc1ccc(O)cc1)C(=O)N[C@@H](CCCNC(=N)N)C(=O)N[C@@H](CCCNC(N)=O)C(=O)N2 [Ex. 103] (cyclo(YR[Cit]CRG[dP]RR[2Nal]CY[Cit]E[dP]P); disulfide 4-11) | 0.2% | 42 µM | 18.3 nM | – | –
5 | C[C@@H](O)[C@@H]1NC(=O)[C@H](CCCNC(=N)N)NC(=O)[C@H](Cc2ccc(O)cc2)NC(=O)[C@@H]2CCCN2C(=O)[C@H]2CCCN2C(=O)[C@H](CCCCN)NC(=O)[C@H](CCC(N)=O)NC(=O)[C@H](Cc2ccc(O)cc2)NC(=O)[C@@H]2CSSC[C@H](NC1=O)C(=O)N[C@@H](CCCNC(=N)N)C(=O)NCC(=O)N1CCC[C@@H]1C(=O)N[C@@H](CCN)C(=O)N[C@@H](CCCNC(=N)N)C(=O)N[C@@H](Cc1ccc3ccccc3c1)C(=O)N2 [Ex. 104] (cyclo(YRTCRG[dP][Dab]R[2Nal]CYQK[dP]P); disulfide 4-11) | 0% | 71 µM | 7.4 nM | – | –
6 | N=C(N)NCCC[C@@H]1NC(=O)[C@@H]2CSSC[C@H](NC(=O)[C@H](Cc3c[nH]c4ccccc34)NC(=O)[C@H](CCCNC(=N)N)NC(=O)[C@H](CCCNC(=N)N)NC(=O)[C@H]3CCCN3C(=O)CNC1=O)C(=O)N[C@@H](Cc1ccc(O)cc1)C(=O)N[C@@H](CCCNC(N)=O)C(=O)N[C@@H](CCCCN)C(=O)N1CCC[C@@H]1C(=O)N1CCC[C@H]1C(=O)N[C@@H](Cc1ccc(O)cc1)C(=O)N[C@@H](Cc1c[nH]cn1)C(=O)N[C@@H](CCCNC(N)=O)C(=O)N2 [Ex. 105] (cyclo(YH[Cit]CRG[dP]RRWCY[Cit]K[dP]P); disulfide 4-11) | 0% | 49 µM | 0.62 nM | – | –
7 | N=C(N)NCCC[C@@H]1NC(=O)[C@@H]2CSSC[C@H](NC(=O)[C@H](Cc3c[nH]c4ccccc34)NC(=O)[C@H](CCCNC(=N)N)NC(=O)[C@H](CCCNC(=N)N)NC(=O)[C@H]3CCCN3C(=O)CNC1=O)C(=O)N[C@@H](Cc1ccc(O)cc1)C(=O)N[C@@H](CCCNC(N)=O)C(=O)N[C@@H](CCCCN)C(=O)N1CCC[C@@H]1C(=O)N1CCC[C@H]1C(=O)N[C@@H](Cc1ccc(O)cc1)C(=O)N[C@@H](CCCCN)C(=O)N[C@@H](CCCNC(N)=O)C(=O)N2 [Ex. 106] (cyclo(YK[Cit]CRG[dP]RRWCY[Cit]K[dP]P); disulfide 4-11) | 0% | 83 µM | 3.1 nM | – | –
8 | N=C(N)NCCC[C@@H]1NC(=O)[C@@H]2CSSC[C@H](NC(=O)[C@H](Cc3c[nH]c4ccccc34)NC(=O)[C@H](CCCNC(=N)N)NC(=O)[C@H](CCCNC(=N)N)NC(=O)[C@H]3CCCN3C(=O)CNC1=O)C(=O)N[C@@H](Cc1ccc(O)cc1)C(=O)N[C@@H](CCCNC(N)=O)C(=O)N[C@@H](CCCCN)C(=O)N1CCC[C@@H]1C(=O)N1CCC[C@H]1C(=O)N[C@@H](Cc1ccccc1)C(=O)N[C@@H](CCCNC(=N)N)C(=O)N[C@@H](CCCNC(N)=O)C(=O)N2 [Ex. 107] (cyclo(FR[Cit]CRG[dP]RRWCY[Cit]K[dP]P); disulfide 4-11) | 0.4% | 50 µM | 3.8 nM | – | –
9 | N=C(N)NCCC[C@@H]1NC(=O)[C@@H]2CSSC[C@H](NC(=O)[C@H](Cc3c[nH]c4ccccc34)NC(=O)[C@H](CCCNC(=N)N)NC(=O)[C@H](CCCNC(=N)N)NC(=O)[C@H]3CCCN3C(=O)CNC1=O)C(=O)N[C@@H](Cc1ccc(O)cc1)C(=O)N[C@@H](CCC(N)=O)C(=O)N[C@@H](CCCCN)C(=O)N1CCC[C@@H]1C(=O)N1CCC[C@H]1C(=O)N[C@@H](Cc1ccc(O)cc1)C(=O)N[C@@H](CCCNC(=N)N)C(=O)N[C@@H](CCCNC(N)=O)C(=O)N2 [Ex. 108] (cyclo(YR[Cit]CRG[dP]RRWCYQK[dP]P); disulfide 4-11) | 0% | 70 µM | 4.6 nM | – | –
10 | N=C(N)NCCC[C@@H]1NC(=O)[C@@H]2CSSC[C@H](NC(=O)[C@H](Cc3c[nH]c4ccccc34)NC(=O)[C@H](CCCNC(=N)N)NC(=O)[C@H](CCN)NC(=O)[C@H]3CCCN3C(=O)CNC1=O)C(=O)N[C@@H](Cc1ccc(O)cc1)C(=O)N[C@@H](CCC(N)=O)C(=O)N[C@@H](CCCCN)C(=O)N1CCC[C@@H]1C(=O)N1CCC[C@H]1C(=O)N[C@@H](Cc1ccc(O)cc1)C(=O)N[C@@H](CCCNC(=N)N)C(=O)N[C@@H](CCCNC(N)=O)C(=O)N2 [Ex. 109] (cyclo(YR[Cit]CRG[dP][Dab]RWCYQK[dP]P); disulfide 4-11) | 0% | 65 µM | 3 nM | – | –
11 | N=C(N)NCCC[C@@H]1NC(=O)[C@@H]2CSSC[C@H](NC(=O)[C@H](Cc3ccc(O)cc3)NC(=O)[C@H](CCCNC(=N)N)NC(=O)[C@H](CCCNC(=N)N)NC(=O)[C@H]3CCCN3C(=O)CNC1=O)C(=O)N[C@@H](Cc1ccc(O)cc1)C(=O)N[C@@H](CCCNC(N)=O)C(=O)N[C@@H](CCCCN)C(=O)N1CCC[C@@H]1C(=O)N1CCC[C@H]1C(=O)N[C@@H](Cc1ccc(O)cc1)C(=O)N[C@@H](CCCNC(=N)N)C(=O)N[C@@H](CCCNC(N)=O)C(=O)N2 [Ex. 112] (cyclo(YR[Cit]CRG[dP]RRYCY[Cit]K[dP]P); disulfide 4-11) | 0% | 76 µM | 7.8 nM | – | –
12 | N=C(N)NCCC[C@@H]1NC(=O)[C@@H]2CSSC[C@H](NC(=O)[C@H](Cc3ccc(O)cc3)NC(=O)[C@H](CCCNC(=N)N)NC(=O)[C@H](CCCNC(=N)N)NC(=O)[C@H]3CCCN3C(=O)CNC1=O)C(=O)N[C@@H](CCCNC(N)=O)C(=O)N[C@@H](Cc1ccc(O)cc1)C(=O)N[C@@H](CCCCN)C(=O)N1CCC[C@@H]1C(=O)N1CCC[C@H]1C(=O)N[C@@H](Cc1ccc(O)cc1)C(=O)N[C@@H](CCCNC(=N)N)C(=O)N[C@@H](CCCNC(N)=O)C(=O)N2 [Ex. 113] (cyclo(YR[Cit]CRG[dP]RRYC[Cit]YK[dP]P); disulfide 4-11) | 0% | 45 µM | 0.62 nM | – | –
13 | N=C(N)NCCC[C@@H]1NC(=O)CNC(=O)[C@@H]2CCCN2C(=O)[C@H]2CCCN2C(=O)[C@H](CCCCN)NC(=O)[C@H](CCCNC(N)=O)NC(=O)[C@H](Cc2ccc(O)cc2)NC(=O)[C@@H]2CSSC[C@H](NC(=O)[C@H](CCCNC(N)=O)NC1=O)C(=O)N[C@@H](CCCNC(=N)N)C(=O)NCC(=O)N1CCC[C@@H]1C(=O)N[C@@H](CCCNC(=N)N)C(=O)N[C@@H](CCCNC(=N)N)C(=O)N[C@@H](Cc1ccc3ccccc3c1)C(=O)N2 [Ex. 114] (cyclo(GR[Cit]CRG[dP]RR[2Nal]CY[Cit]K[dP]P); disulfide 4-11) | 0% | 67 µM | 1.3 nM | – | –
14 | COCCOCCOCC(=O)N[C@H]1C[C@H]2C(=O)N[C@@H](Cc3ccc(O)cc3)C(=O)N[C@@H](CCCNC(=N)N)C(=O)N[C@@H](CCCNC(N)=O)C(=O)N[C@H]3CSSC[C@H](NC(=O)[C@H](Cc4c[nH]c5ccccc45)NC(=O)[C@H](CCCNC(=N)N)NC(=O)[C@H](CCCNC(=N)N)NC(=O)[C@H]4CCCN4C(=O)CNC(=O)[C@H](CCCNC(=N)N)NC3=O)C(=O)N[C@@H](Cc3ccc(O)cc3)C(=O)N[C@@H](CCCNC(N)=O)C(=O)N[C@@H](CCCCN)C(=O)N3CCC[C@@H]3C(=O)N2C1 [Ex. 116] (cyclo(YR[Cit]CRG[dP]RRWCY[Cit]K[dP][X3]); disulfide 4-11) | – | 20 µM | – | 0% | 14.5 nM
